From ChEMBL document CHEMBL1201862, “PubChem BioAssay data set” (2004)
The source made the active and inactive calls.

Columns and labels:
[1] = biological target: T1, RNA-binding protein pos-1 (Caenorhabditis elegans, UniProt G5EF15); experiment: disruptors of C. elegans POS-1 RNA interaction – biochemical, fluorescence polarization, dose response (AID 1964);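 also: purified POS-1 fused to maltose binding protein made in E. coli; potency of compounds blocking POS-1 binding to fluorescent RNA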
T1 sequence (G5EF15 whole entry): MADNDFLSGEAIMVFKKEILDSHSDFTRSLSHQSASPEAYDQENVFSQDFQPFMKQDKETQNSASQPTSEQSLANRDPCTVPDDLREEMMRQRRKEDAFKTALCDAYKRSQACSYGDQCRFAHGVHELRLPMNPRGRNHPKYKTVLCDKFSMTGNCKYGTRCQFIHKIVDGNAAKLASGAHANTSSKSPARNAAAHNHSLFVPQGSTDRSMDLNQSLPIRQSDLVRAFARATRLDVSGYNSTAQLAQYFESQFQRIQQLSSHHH

[2] = biological target: T2, Zinc finger protein mex-5 (Caenorhabditis elegans, UniProt Q9XUB2); experiment: potency of MEX-5 RNA-binding blockers – biochemical, C. elegans, fluorescence polarization, dose response (AID 1960)
T2 sequence (Q9XUB2 whole entry): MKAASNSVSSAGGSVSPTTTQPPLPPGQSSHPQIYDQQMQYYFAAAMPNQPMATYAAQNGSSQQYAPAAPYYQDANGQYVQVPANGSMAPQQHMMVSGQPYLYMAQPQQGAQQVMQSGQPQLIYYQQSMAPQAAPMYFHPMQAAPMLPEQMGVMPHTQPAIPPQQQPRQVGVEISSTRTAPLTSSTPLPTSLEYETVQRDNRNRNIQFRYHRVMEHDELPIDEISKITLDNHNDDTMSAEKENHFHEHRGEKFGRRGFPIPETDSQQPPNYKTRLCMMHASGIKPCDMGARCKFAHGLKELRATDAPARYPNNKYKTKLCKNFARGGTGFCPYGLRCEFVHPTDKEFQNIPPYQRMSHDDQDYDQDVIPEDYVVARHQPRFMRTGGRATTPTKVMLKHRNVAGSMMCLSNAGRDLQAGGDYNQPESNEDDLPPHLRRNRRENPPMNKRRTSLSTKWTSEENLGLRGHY

[3] = biological target: T3, Calpain-2 catalytic subunit (Sus scrofa, UniProt P43367); experiment: m-calpain protease blockers, concentration series – biochemical, fluorogenic peptide substrate, dose response (AID 1420); type: functional
T3 sequence (P43367 whole entry): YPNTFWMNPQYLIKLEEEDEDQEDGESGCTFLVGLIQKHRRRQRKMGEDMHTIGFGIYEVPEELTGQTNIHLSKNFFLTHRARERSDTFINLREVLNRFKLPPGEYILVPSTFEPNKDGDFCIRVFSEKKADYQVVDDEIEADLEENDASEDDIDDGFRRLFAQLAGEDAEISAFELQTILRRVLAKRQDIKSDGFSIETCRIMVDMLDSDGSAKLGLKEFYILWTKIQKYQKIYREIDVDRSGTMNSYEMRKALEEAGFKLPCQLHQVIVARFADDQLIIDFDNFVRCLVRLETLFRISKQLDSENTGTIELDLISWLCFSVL

[4] = biological target: T4, Mannose-6-phosphate isomerase (Homo sapiens, UniProt P34949); experiment: MPI inhibition at elevated mannose 6-phosphate – biochemical, fluorescence intensity, high mannose 6-phosphate, primary screen (AID 1220)
T4 sequence (P34949 whole entry): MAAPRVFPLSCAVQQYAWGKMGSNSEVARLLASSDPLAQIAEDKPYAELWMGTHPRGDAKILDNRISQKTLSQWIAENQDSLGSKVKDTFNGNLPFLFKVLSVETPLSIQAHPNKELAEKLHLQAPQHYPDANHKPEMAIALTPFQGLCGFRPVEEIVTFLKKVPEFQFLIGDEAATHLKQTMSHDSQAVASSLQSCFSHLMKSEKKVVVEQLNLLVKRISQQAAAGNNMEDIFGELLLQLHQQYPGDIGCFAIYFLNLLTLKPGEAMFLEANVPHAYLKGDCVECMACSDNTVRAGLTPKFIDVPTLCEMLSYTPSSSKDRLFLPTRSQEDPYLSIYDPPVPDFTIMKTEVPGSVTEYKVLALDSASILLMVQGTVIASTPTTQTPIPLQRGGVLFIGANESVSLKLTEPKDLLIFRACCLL

Genome polyprotein = Genome polyprotein (dengue virus type 2, UniProt P29990); experiment: flavivirus cap methylation enzyme inhibition – biochemical, confirmation dose response, primary screen (AID 588689); type: functional
[5] = biological target: T5, Histone-lysine N-methyltransferase NSD2 (Homo sapiens, UniProt O96028); type: biochemical
T5 sequence (O96028 whole entry): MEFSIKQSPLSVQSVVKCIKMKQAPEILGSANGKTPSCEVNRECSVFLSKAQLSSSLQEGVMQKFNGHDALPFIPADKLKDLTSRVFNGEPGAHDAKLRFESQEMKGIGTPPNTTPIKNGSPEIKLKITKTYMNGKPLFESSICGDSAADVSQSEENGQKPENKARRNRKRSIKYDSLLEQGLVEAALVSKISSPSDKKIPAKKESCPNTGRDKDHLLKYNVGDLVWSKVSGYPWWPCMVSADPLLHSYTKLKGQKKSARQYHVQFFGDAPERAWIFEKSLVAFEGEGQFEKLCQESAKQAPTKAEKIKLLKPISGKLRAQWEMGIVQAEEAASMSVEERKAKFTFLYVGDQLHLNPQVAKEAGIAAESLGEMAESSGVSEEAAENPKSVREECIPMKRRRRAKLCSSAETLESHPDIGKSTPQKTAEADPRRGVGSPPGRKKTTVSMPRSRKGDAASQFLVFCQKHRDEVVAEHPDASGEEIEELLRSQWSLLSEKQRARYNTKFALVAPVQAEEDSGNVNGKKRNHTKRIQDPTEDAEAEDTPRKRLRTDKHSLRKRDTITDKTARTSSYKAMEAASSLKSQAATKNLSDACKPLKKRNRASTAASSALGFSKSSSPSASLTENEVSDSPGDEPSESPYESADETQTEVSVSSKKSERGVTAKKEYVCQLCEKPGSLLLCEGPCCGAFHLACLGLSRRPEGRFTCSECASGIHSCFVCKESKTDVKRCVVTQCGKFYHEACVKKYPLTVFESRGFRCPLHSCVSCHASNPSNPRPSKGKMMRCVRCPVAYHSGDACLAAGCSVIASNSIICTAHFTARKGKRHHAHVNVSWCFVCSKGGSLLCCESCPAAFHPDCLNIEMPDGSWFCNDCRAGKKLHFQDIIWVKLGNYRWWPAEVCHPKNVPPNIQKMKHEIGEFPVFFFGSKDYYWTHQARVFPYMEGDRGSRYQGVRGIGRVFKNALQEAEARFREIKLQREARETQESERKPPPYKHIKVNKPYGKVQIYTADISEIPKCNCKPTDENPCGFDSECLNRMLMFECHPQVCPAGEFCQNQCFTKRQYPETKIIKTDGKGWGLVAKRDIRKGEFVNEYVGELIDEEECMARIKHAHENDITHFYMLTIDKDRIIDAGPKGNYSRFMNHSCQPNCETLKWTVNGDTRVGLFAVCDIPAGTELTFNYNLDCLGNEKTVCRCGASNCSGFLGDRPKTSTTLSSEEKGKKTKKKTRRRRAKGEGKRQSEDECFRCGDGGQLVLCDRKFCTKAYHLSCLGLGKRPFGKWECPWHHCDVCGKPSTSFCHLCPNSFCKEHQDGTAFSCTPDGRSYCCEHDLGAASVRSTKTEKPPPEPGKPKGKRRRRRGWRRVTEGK

[6] = biological target: RNA-editing ligase 1, mitochondrial (Trypanosoma brucei brucei, UniProt P86926); experiment: inhibition of trypanosome RNA editing ligase – biochemical, fluorescence, Trypanosoma brucei, dose response (AID 1117295); type: functional
[7] = viability inhibitors of stage V gametocytes – luminescence, dose response (AID 1117278); type: functional, cell-based;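 also: gametocytes exposed to compound for 24 hours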
[8] = viability loss in human Jurkat cells – cell-based, luminescence, cytotoxicity control for P. falciparum gametocyte viability project, dose response (AID 1117277); type: functional;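 also: potency reflects loss of cellular ATP meaning fewer viable cells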
Large T antigen = Large T antigen (Simian virus 40, UniProt P03070); type: functional, Betapolyomavirus macacae;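 also: Confirmatory-stage PubChem screen for compounds that inhibit SV40 T antigen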
[9] = biological target: Glutathione-S-transferase (Schistosoma japonicum, UniProt Q26513); experiment: GST-antibody interaction or FRET quenching – biochemical, TR-FRET, artefact control for Vif-APOBEC3G degradation inhibitor project, dose response (AID 1117362); type: functional
[10] = glucagon-like peptide-1 release potency in STC-1, concentration-response, half-maximal inhibitory concentration in the STC-1 line (AID 1117345); type: functional, cell-based
[11] = Potency on glucagon-like peptide 1 release, dose-response in NCI-H716 cell line, half maximal inhibitory concentration (AID 1117344); type: functional, cell-based
Transthyretin = Transthyretin (Homo sapiens, UniProt P02766); experiment: Luminescence-based cell-based high throughput dose response assay to identify activators of Transthyretin (TTR) transcription.; type: functional
[12] = biological target: Metabotropic glutamate receptor 7 (Homo sapiens, UniProt Q14831); experiment: potentiation of glutamate EC20 at mGlu7 – cell-based, calcium mobilization, Galpha15, dose response (AID 743384); type: functional
[13] = growth inhibition of yeast DHODH-expressing 3D7 parasites – SYBR Green, dry powder samples, dose response (AID 1159570); type: functional, cell-based;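 also: parasite growth measured after 72 hours of compound exposure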
[14] = P. falciparum Dd2 growth inhibitors, dose response, SYBR Green, cherry-picked samples (AID 1159567); type: functional, cell-based
[15] = Dd2 malaria parasite growth inhibition potency – SYBR Green, dry powder samples, dose response (AID 1159566); type: functional, cell-based;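 also: potency for growth inhibition with lower SYBR green DNA signal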
[16] = growth inhibition of PfATP4-mutant resistant parasites – NITD609-resistant line, SYBR Green, dry powder, dose response (AID 1159571); type: functional, cell-based;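 also: parasites synchronized at ring stage by sorbitol before testing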
Phospholipase D2 [17] = biological target: T6, Phospholipase D2 (Homo sapiens, UniProt O14939); experiment: PLD2 Cellular Concentration Response Study.; type: functional
Phospholipase D2 [18] = biological target: T6, Phospholipase D2; experiment: Discovery of PLD2 inhibitors using the Purified Enzyme Concentration Response Assay.; type: functional
Phospholipase D1 = Phospholipase D1 (Homo sapiens, UniProt Q13393); experiment: PLD1 Cellular Concentration Response Study.; type: functional
Sequence of Phospholipase D1 (Q13393 whole entry): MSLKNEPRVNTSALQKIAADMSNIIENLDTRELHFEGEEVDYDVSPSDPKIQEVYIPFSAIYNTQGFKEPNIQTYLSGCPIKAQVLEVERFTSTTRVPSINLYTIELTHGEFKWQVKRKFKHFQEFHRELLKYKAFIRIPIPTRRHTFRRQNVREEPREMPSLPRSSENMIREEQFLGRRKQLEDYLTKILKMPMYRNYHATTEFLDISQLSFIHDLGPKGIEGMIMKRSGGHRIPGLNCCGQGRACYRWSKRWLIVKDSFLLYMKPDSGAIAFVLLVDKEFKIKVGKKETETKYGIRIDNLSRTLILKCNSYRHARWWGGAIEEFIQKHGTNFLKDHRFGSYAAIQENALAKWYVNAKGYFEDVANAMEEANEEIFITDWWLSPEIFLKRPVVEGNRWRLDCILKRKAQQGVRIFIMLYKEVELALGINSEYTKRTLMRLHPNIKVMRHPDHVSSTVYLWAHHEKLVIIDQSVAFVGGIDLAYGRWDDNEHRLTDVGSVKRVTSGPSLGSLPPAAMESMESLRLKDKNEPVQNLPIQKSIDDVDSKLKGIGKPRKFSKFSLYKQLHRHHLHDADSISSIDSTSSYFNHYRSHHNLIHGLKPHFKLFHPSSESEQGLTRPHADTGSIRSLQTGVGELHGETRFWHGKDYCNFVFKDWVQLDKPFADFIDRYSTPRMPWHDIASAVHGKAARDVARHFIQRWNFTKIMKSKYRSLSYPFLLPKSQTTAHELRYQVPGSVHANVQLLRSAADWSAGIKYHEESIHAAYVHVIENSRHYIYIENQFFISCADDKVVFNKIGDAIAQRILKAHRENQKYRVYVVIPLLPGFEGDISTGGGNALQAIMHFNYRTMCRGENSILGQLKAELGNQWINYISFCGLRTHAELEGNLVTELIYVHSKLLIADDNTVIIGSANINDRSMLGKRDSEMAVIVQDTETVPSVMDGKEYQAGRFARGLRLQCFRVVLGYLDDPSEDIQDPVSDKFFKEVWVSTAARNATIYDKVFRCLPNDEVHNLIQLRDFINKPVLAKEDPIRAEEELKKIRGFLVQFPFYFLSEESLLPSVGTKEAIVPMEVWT

T6 sequence (O14939 whole entry): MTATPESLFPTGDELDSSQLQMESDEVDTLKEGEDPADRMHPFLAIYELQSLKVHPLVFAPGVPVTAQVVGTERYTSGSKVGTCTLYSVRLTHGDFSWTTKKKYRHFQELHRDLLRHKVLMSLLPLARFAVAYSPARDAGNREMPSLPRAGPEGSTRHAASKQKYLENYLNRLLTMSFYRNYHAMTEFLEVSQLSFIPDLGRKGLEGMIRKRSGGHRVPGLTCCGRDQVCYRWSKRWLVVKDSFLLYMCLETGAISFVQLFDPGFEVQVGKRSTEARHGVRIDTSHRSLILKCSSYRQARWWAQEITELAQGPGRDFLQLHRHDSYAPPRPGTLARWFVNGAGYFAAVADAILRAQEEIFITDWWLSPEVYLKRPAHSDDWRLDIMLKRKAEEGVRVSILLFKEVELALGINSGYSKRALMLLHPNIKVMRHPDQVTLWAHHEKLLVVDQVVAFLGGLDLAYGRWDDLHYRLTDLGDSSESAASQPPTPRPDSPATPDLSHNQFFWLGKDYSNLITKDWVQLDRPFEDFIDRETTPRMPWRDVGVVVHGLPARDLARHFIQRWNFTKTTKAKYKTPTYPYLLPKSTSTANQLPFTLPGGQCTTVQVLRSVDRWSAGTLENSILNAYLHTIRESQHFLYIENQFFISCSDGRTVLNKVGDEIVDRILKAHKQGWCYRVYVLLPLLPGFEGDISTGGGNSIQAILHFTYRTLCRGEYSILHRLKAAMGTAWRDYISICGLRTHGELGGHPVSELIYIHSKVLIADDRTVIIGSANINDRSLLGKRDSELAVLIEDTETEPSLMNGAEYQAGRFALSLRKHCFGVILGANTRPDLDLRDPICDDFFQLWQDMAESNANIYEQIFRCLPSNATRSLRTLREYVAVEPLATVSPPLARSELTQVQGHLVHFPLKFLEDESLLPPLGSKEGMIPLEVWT
Sequence of RNA-editing ligase 1, mitochondrial (P86926 whole entry): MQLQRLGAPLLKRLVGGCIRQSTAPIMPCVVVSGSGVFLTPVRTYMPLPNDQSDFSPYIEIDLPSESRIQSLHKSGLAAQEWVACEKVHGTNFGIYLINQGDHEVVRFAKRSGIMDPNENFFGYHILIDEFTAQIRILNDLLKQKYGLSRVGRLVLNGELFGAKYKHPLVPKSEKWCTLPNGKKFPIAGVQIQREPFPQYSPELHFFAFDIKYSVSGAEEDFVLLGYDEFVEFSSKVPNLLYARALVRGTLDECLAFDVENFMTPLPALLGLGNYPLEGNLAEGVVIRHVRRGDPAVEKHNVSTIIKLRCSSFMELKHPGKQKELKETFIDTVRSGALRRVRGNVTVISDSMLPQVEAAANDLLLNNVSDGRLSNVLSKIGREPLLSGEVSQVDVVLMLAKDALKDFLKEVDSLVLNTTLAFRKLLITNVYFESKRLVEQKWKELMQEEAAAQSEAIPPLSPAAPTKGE
Sequence of Large T antigen (P03070 whole entry): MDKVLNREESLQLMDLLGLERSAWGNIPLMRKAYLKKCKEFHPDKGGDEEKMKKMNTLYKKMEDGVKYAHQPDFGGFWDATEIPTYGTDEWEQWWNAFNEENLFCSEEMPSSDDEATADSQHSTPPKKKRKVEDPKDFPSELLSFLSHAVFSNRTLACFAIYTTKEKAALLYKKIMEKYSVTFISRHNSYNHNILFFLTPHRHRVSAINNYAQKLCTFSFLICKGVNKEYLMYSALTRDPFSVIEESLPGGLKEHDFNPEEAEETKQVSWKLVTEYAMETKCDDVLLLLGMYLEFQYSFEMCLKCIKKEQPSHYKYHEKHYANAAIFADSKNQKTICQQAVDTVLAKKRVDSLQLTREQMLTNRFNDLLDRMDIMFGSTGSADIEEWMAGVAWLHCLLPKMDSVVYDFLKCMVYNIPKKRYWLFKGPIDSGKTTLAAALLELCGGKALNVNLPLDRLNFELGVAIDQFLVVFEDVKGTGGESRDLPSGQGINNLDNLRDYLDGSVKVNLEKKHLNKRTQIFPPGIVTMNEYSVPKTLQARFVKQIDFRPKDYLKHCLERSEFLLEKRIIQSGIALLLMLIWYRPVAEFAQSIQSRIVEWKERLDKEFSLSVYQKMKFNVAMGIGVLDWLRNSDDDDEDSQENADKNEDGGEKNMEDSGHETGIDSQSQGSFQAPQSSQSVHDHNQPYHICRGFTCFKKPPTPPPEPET
Sequence of Genome polyprotein (P29990 2492-3391 limits assumed): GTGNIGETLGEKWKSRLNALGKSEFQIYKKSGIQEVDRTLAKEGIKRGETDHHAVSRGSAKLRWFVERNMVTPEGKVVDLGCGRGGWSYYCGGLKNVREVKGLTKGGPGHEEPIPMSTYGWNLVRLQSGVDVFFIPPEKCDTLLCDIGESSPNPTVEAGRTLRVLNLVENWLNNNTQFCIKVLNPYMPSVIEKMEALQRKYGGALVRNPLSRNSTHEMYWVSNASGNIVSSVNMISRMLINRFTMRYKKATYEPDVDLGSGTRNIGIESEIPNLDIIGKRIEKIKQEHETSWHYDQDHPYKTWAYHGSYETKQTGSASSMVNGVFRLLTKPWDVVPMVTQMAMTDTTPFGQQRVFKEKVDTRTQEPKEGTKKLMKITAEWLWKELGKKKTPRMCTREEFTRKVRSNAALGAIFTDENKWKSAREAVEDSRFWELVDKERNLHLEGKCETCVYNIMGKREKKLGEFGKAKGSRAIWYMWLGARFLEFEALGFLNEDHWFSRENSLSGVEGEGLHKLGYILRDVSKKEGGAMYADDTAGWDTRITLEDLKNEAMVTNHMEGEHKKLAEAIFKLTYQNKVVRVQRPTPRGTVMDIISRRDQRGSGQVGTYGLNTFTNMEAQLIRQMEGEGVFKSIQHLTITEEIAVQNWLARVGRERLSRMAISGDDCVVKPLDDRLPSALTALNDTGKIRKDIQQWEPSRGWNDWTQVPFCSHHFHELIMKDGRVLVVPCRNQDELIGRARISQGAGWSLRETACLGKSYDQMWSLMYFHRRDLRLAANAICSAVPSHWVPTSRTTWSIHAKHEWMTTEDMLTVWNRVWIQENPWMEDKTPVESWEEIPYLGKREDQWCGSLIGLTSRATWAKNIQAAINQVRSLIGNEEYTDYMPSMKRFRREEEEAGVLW
Sequence of Glutathione-S-transferase (Q26513 whole entry): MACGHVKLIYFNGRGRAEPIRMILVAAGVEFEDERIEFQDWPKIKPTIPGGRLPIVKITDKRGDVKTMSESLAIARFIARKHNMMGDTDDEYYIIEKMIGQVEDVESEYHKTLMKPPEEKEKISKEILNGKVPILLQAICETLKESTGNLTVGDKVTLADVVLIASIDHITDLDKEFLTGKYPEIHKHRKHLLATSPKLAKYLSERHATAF

## CCOC(=O)c1ccc(CC(=O)c2ccc(O)c(O)c2O)o1
[1]
  EC50: 35.5 µM (active)
[2]
  EC50: 0.868 µM (active)
[3]
  IC50: > 50 µM (not active)
[4]
  IC50: 19.4 µM (active)
Genome polyprotein
  IC50: 33.6 µM (active)
[5]
  AC50: 17.3 µM (active)
[6]
  IC50: > 96.6 µM (inactive)

## CSc1nccc(-c2cc(Cl)sc2Cl)n1
[7]
  IC50: > 109 µM (inactive)
[8]
  IC50: > 83.3 µM (inactive)

## CN(C(=S)Nc1cccnc1)c1ccc(O)cc1
Large T antigen
  IC50: 58.4 µM (active)
[4]
  IC50: > 50 µM (not active)
[9]
  IC50: > 100 µM (active)

## CC(C)(C)CC(C)(C)c1ccc(O)cc1
[10]
  IC50: 8.37 µM (inactive)
[11]
  IC50: 25.9 µM (inactive)

## C/C(=N\Nc1ncc(Br)cn1)c1cccc([N+](=O)[O-])c1
Transthyretin
  EC50: > 167 µM (inactive)

## COC(=O)c1ccc(-n2c(C)cc(C(=O)COc3ccc(NC(C)=O)cc3)c2C)cc1
[12]
  EC50: 2.4 µM (active)

## COc1cccc(C#Cc2cnc3c(c2)C(=O)N([C@@H](C)CO)C[C@H](C)[C@@H](CN(C)C(=O)C2CCCCC2)O3)c1
[13]
  AC50: 0.783 µM (active)
[14]
  AC50: 0.889 µM (active)
[15]
  AC50: 0.635 µM (active)
[16]
  AC50: 0.972 µM (active)

## O=C(NCCN1CCC2(CC1)C(=O)NCN2Cc1cccnc1)c1cc2ccccc2o1
Phospholipase D2 [17]
  IC50: 2.5 µM (active)
Phospholipase D2 [18]
  IC50: 12.5 µM (active)
Phospholipase D1
  IC50: 20 µM (active)
